Source: patent US10040802B2, “Thienopyrazine inhibitors of IRAK4 activity” (MERCK SHARP & DOHME CORP., priority 2015, dated 2018)
pIC50: −log10 of the molar value. Counter-ions that a name gives are not always drawn.

Biological target: GST tagged IRAK4 (Homo sapiens (Human), UniProt Q9NWZ3)
Test: IRAK4 Kinase Assay (IMAP fluorescence polarization)
Assay type: biochemical
Conditions: 0.5 nM GST tagged IRAK4, 100 μM ATP, 30 minutes at 25° C.
Experimental: The kinase activity of IRAK4 is determined by its ability to catalyze the phosphorylation of a fluorescent polypeptide substrate. The extent of phosphorylation is measured using the IMAP technology (Molecular Devices) where the phosphorylated fluorescent substrate binds to the large M(III)-based nanoparticles which reduces the rotational speed of the substrate and thus increases its fluorescent polarization (FP).
20 μL reaction mixture contains 10 mM TriHCl, pH 7.2, 0.5 nM GST tagged IRAK4 (SignalChem), 100 nM fluorescent peptide substrate (RP7030, Molecular Devices), 100 μM ATP, 1 mM DDT, 1 mM MgCl2, and 0.01% Tween 20. The reaction is initiated by the addition of ATP. After incubation for 30 minutes at 25° C., 60 μL of Progressive IMAP Reagent (Molecular Devices) is added to stop the reaction. Change in RP7030's FP is determined by a FP reader (Analyst HT, LJL BioSystems).

Chain of GST tagged IRAK4 (Q9NWZ3 whole entry): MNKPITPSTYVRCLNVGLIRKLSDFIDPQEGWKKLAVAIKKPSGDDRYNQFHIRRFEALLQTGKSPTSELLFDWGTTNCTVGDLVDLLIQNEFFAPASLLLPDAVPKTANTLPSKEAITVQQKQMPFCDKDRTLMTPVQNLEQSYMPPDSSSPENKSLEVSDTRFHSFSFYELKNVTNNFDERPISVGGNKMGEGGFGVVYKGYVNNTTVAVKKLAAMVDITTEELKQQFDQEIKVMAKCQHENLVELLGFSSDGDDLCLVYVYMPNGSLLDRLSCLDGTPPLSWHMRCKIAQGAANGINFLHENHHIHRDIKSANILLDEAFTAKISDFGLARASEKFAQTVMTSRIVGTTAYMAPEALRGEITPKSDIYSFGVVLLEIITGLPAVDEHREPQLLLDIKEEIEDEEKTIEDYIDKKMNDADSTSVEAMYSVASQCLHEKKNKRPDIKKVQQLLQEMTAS

SMILES	pIC50
N[C@H]1CCCC[C@H]1Nc1cnc2scc(C(=O)Nc3ccsc3Cl)c2n1 [Example 56, 2-{[(1R,2S)-2-amino-cyclohexyl]amino}-N-(2-chlorothiophen-3-yl)thieno[2,3-b] pyrazine-7-carboxamide trifluoroacetate]	9.22
Cn1cc(NC(=O)c2csc3ncc(N4C5CCC4CNC5)nc23)c(C(F)(F)F)n1 [Example 45, 2-(3,8-diazabicyclo[3.2.1]oct-8-yl)-N-[1-methyl-3-(trifluoromethyl)-1H-pyrazol-4-yl]thieno[2,3-b] pyrazine-7-carboxamide trifluoroacetate]	8.70
O=C(Nc1ccsc1C(F)(F)F)c1csc2ncc(N3C[C@H]4CC[C@@H]3CN4)nc12 (single isomer, unassigned) [Example 75, 2-[(1S,4S)- or (1R,4R)-2,5-diazabicyclo [2.2.2]oct-2-yl]-N-[2-(trifluoromethyl)thiophen-3-yl] thieno[2,3-b] pyrazine-7-carboxamide trifluoroacetate]	5.91
O=C(Nc1ccsc1Br)c1csc2ncc(N3CCCNCC3)nc12 [Example 51, N-(2-bromothiophen-3-yl)-2-(1,4-diazepan-1-yl)thieno[2,3-b] pyrazine-7-carboxamide trifluoroacetate]	5.94
Cn1cc(NC(=O)c2csc3ncc(N[C@@H]4CCCNC4)nc23)c(C(F)(F)F)n1 [Example 4, trifluoroacetate]	9.10
Cn1cc(NC(=O)c2csc3ncc(N4CCNCC4)nc23)c(C(F)F)n1 [Example 12, N-[3-(difluoromethyl)-1-methyl-1H-pyrazol-4-yl]-2-piperazin-1-ylthieno[2,3-b] pyrazine-7-carboxamide trifluoroacetate]	8.52
Cn1cc(NC(=O)c2csc3ncc(N[C@@H]4CCCCNC4)nc23)c(C(F)F)n1 (single isomer, unassigned) [Example 33, 2-[(3S)- or (3R)-azepan-3-ylamino]-N-[3-(difluoromethyl)-1-methyl-1H-pyrazol-4-yl]thieno[2,3-b] pyrazine-7-carboxamide trifluoroacetate]	9.70
Cn1cc(NC(=O)c2csc3ncc(N4CCNCC4)nc23)c(C(F)(F)F)n1 [Example 2, N-[1-methyl-3-(trifluoromethyl)-1H-pyrazol-4-yl]-2-piperazin-1-ylthieno[2,3-b] pyrazine-7-carboxamide trifluoroacetate]	7.38
Cn1cc(NC(=O)c2csc3ncc(N4C[C@H]5CC[C@@H]4CN5)nc23)c(Cl)n1 (single isomer, unassigned) [Example 17, N-(3-chloro-1-methyl-1H-pyrazol-4-yl)-2-[(1S,4S)- or (1R,4R)-2,5-diazabicyclo[2.2.2]oct-2-yl]thieno[2,3-b] pyrazine-7-carboxamide trifluoroacetate]	7.82
N[C@H]1CCCC[C@H]1Nc1cnc2scc(C(=O)Nc3cscc3C(F)F)c2n1 [Example 50, 2-{[(1R,2S)-2-aminocyclohexyl]amino}-N-(4-(difluoromethyl)thiophen-3-yl] thieno[2,3-b] pyrazine-7-carboxamide trifluoroacetate]	9.15
Cn1cc(NC(=O)c2csc3ncc(N[C@@H]4CCCNC4)nc23)c(C(F)F)n1 [Example 32, N-[3-(difluoromethyl)-1-methyl-1H-pyrazol-4-yl]-2-[(3R)-piperidin-3-ylamino]thieno [2,3-b]pyrazine-7-carboxamide]	9.40
Cn1cc(NC(=O)c2csc3ncc(N[C@@H]4CCCC[C@@H]4N)nc23)c(Br)n1 [Example 30, 2-{[(1R,2S)-2-aminocyclohexyl]amino}-N-(3-bromo-1-methyl-1H-pyrazol-4-yl)thieno[2,3-b] pyrazine-7-carboxamide trifluoroacetate]	9.22
O=C(Nc1cscc1Br)c1csc2ncc(N3C[C@H]4CC[C@@H]3CN4)nc12 (single isomer, unassigned) [Example 49, N-(4-bromothiophen-3-yl)-2-[(1S,4S)- or (1R,4R)-2,5-diazabicyclo[2.2.2]oct-2-yl]thieno[2,3-b] pyrazine-7-carboxamide trifluoroacetate]	6.67
N[C@@H]1[C@H](Nc2cnc3scc(C(=O)Nc4ccsc4Cl)c3n2)CCCC1(F)F [Example 60, 2-{[(1R,2R)-2-amino-3,3-difluorocyclohexyl]amino}-N-(2-chloro-thiophen-3-yl) thieno[2,3-b] pyrazine-7-carboxamide trifluoroacetate]	5.85
Cn1cc(NC(=O)c2csc3ncc(N4C[C@@H]5CC[C@H]4CN5)nc23)c(C(F)F)n1 (single isomer, unassigned) [Example 22, 2-[(1S,4S)- or (1R,4R)-2,5-diazabicyclo[2.2.2]oct-2-yl]-N-[3-(difluoromethyl)-1-methyl-1H-pyrazol-4-yl]thieno[2,3-b] pyrazine-7-carboxamide trifluoroacetate]	8.15
N[C@@H]1[C@H](Nc2cnc3scc(C(=O)Nc4ccsc4Br)c3n2)CCCC1(F)F [Example 71, 2-{[(1R,2R)-2-amino-3,3-difluorocyclohexyl]amino}-N-(2-bromothiophen-3-yl) thieno[2,3-b] pyrazine-7-carboxamide trifluoroacetate]	5.68
Cn1cc(NC(=O)c2csc3ncc(N[C@@H]4CCCC(F)(F)[C@@H]4N)nc23)c(Cl)n1 [Example 43, 2-{[(1R,2R)-2-amino-3,3-difluorocyclohexyl]amino}-N-(3-chloro-1-methyl-1H-pyrazol-4-yl)thieno[2,3-b] pyrazine-7-carboxamide trifluoroacetate]	7.19
Cn1cc(NC(=O)c2csc3ncc(N[C@H]4CCCCNC4)nc23)c(C(F)F)n1 (single isomer, unassigned) [Example 34, 2-[(3S)- or (3R)-azepan-3-ylamino]-N-[3-(difluoromethyl)-1-methyl-1H-pyrazol-4-yl]thieno[2,3-b] pyrazine-7-carboxamide trifluoroacetate]	8.70
N#Cc1sccc1NC(=O)c1csc2ncc(N3C[C@H]4CC[C@@H]3CN4)nc12 (single isomer, unassigned) [Example 70, N-(2-cyanothiophen-3-yl)-2-[(1S,4S)- or (1R,4R)-2,5-diazabicyclo[2.2.2]oct-2-yl]thieno[2,3-b] pyrazine-7-carboxamide trifluoroacetate]	6.65
Cn1cc(NC(=O)c2csc3ncc(N4CC5CCC(C4)N5)nc23)c(C(F)(F)F)n1 [Example 41, 2-(3,8-diazabicyclo[3.2.1]oct-3-yl)-N-[1-methyl-3-(trifluoromethyl)-1H-pyrazol-4-yl]thieno[2,3-b] pyrazine-7-carboxamide trifluoroacetate]	7.74

Second part, the molecule after the results:

pIC50	SMILES
8.40	N#Cc1ccccc1NC(=O)c1csc2ncc(N[C@H]3CCCCNC3)nc12 (single isomer, unassigned) [Example 93, 2-[(3S)- or (3R)-azepan-3-ylamino]-N-(2-cyanophenyl)-thieno[2,3-b]-pyrazine-7-carboxamide trifluoroacetate]
5.54	O=C(Nc1ccccc1Br)c1csc2ncc(N3C[C@@H]4CC[C@H]3CN4)nc12 (single isomer, unassigned) [Example 88, N-(2-bromophenyl)-2-[(1S,4S)- or (1R,4R)-2,5-diazabicyclo-[2.2.2]oct-2-yl]thieno[2,3-b]-pyrazine-7-carboxamide trifluoroacetate]
6.05	N#Cc1ccccc1NC(=O)c1csc2ncc(N3CCNCC4(CC4)C3)nc12 [Example 83, N-(2-cyanophenyl)-2-(5,8-diazaspiro-[2.6]non-5-yl)-thieno[2,3-b]-pyrazine-7-carboxamide trifluoroacetate]
6.21	O=C(Nc1ccccc1Br)c1csc2ncc(N3C[C@H]4CC[C@@H]3CN4)nc12 (single isomer, unassigned) [Example 89, N-(2-bromophenyl)-2-[(1S,4S)- or (1R,4R)-2,5-diazabicyclo-[2.2.2]oct-2-yl]thieno[2,3-b]-pyrazine-7-carboxamide trifluoroacetate]
7.92	N[C@H]1CCCC[C@H]1Nc1cnc2scc(C(=O)Nc3ccsc3C(F)(F)F)c2n1 [Example 76, 2-{[(1R,2S)-2-amino-cyclohexyl]amino}-N-(2-(trifluoromethyl)thiophen-3-yl] thieno[2,3-b] pyrazine-7-carboxamide trifluoroacetate]
6.51	O=C(Nc1cscc1Cl)c1csc2ncc(N3C[C@@H]4CC[C@H]3CN4)nc12 (single isomer, unassigned) [Example 108, N-(4-chlorothiophen-3-yl)-2-[(1S,4S)- or (1R,4R)-2,5-diazabicyclo-[2.2.2]oct-2-yl]-thieno[2,3-b]-pyrazine-7-carboxamide trifluoroacetate]
5.59	N[C@@H]1[C@H](Nc2cnc3scc(C(=O)Nc4ccccc4C(F)F)c3n2)CCCC1(F)F [Example 106, 2-{[(1R,2R)-2-amino-3,3-difluorocyclohexyl]-amino}-N-[2-(difluoromethyl)phenyl]thieno[2,3-b]pyrazine-7-carboxamide trifluoroacetate]
5.63	O=C(Nc1ccccc1Br)c1csc2ncc(N3CCCNCC3)nc12 [Example 82, N-(2-bromophenyl)-2-(1,4-diazepan-1-yl)thieno[2,3-b]pyrazine-7-carboxamide trifluoroacetate]
6.23	O=C(Nc1ccccc1Cl)c1csc2ncc(N3CCCNCC3)nc12 [Example 91, N-(2-chlorophenyl)-2-(1,4-diazepan-1-yl)thieno[2,3-b]-pyrazine-7-carboxamide trifluoroacetate]
